From patent publication US20220016111A1, “Methods of Treating Inflammation” (The Walter and Eliza Hall Institute of Medical Research, priority 2018, published 2022)
“Also recorded” adds a separate entry of the source.

What was measured:
[1] = in vivo, cited from earlier work
[2] = test system: wild type and mutant forms of EZH2; conditions: cited from earlier work
[3] = in-vivo; cited from earlier work
[4] = test system: 30 other histone or DNA methyltransferases; conditions: cited from earlier work
EZH1 [5] = molecular target: T1, EZH1 (Homo sapiens, UniProt Q92800); conditions: cited from earlier work
[6] = test system: established allergic inflammation; assay: Established OVA inflammation, single dose of GSK126; type: in vivo, C57BL/6 mice; conditions: single dose 150 mg/kg oral gavage on day 5, assessed 3 days later
Procedure: CD4+ and CD8+ T cells were first gated by CD11b−GR1−TCRβ+. Neutrophils were gated by CD11bHiGR1Hi. Eosinophils were gated by CD11b+CD11c−SiglecF+. Mean and SEM are shown. n=2 Alum-sensitized vehicle treated controls shown for comparative purposes. OVA-sensitized groups were statistically compared by Student's t test.
Mice were immunized with an intraperitoneal injection of 200 μL Alum/OVA containing 20 μg low-endotoxin ovalbumin (Worthington) and 2.25 mg aluminium hydroxide (Sigma) in sterile PBS on day 0 and day 7. Mice were then rested for a minimum of 2 weeks and then challenged daily for 4 days with nebulized 2% (w/v) ovalbumin (Sigma) in PBS for 15 min. The day after the final challenge (or at a time-point described in the text), mice were sacrificed and bronchoalveolar lavage (250 μL×2 with sterile PBS) was performed from which cellular infiltrate was analysed by flow cytometry and acellular BAL fluid was analysed by Bio-Plex Pro™ cytokine assay (Biorad). Lung tissue was then fixed by inserting 1 mL of 10% formalin via the trachea into the lungs leaving to set in situ for at least 30 min. […] Stained slides were imaged using an Aperio Digital Pathology Slide Scanner and quantitated by counting PAS positive epithelial cells and scoring leukocyte infiltration in H&E stained sections according to the scoring chart (FIG. 16). […]

[7] = test system: 20 other methyltransferases; conditions: cited from earlier work
[8] = test system: OVA-induced allergic inflammation; type: in vivo, C57BL/6 mice
Procedure: (§1) Mean and SEM is shown. […] Scale bar represents 100 μm. e) Quantification of histological analysis showing the frequency of PAS^+ cells and the Inflammation Score. Mean and SEM are shown for n=8 per group. […] Mean and SEM are shown for n=5 (Vehicle), n=4 (each GSK dose).
Mean and SEM as well as individual data points are shown. n=4 each group. Data was statistically tested by 1-way ANOVA with Dunnet's post-hoc test.
(§2) Mice were immunized with an intraperitoneal injection of 200 μL Alum/OVA containing 20 μg low-endotoxin ovalbumin (Worthington) and 2.25 mg aluminium hydroxide (Sigma) in sterile PBS on day 0 and day 7. Mice were then rested for a minimum of 2 weeks and then challenged daily for 4 days with nebulized 2% (w/v) ovalbumin (Sigma) in PBS for 15 min. The day after the final challenge (or at a time-point described in the text), mice were sacrificed and bronchoalveolar lavage (250 μL×2 with sterile PBS) was performed from which cellular infiltrate was analysed by flow cytometry and acellular BAL fluid was analysed by Bio-Plex Pro™ cytokine assay (Biorad). Lung tissue was then fixed by inserting 1 mL of 10% formalin via the trachea into the lungs leaving to set in situ for at least 30 min. The mid-section of the left lobe was then excised and placed in liquid formalin for a further 24 h prior to paraffin embedding, sectioning and staining with Periodic acid-Schiff (PAS) and Haematoxylin and Eosin (H&E) stains. Stained slides were imaged using an Aperio Digital Pathology Slide Scanner and quantitated by counting PAS positive epithelial cells and scoring leukocyte infiltration in H&E stained sections according to the scoring chart (FIG. 16). Scores from at least five 20× magnification fields of each stain were averaged for each mouse.
Lung function was assessed by the forced oscillation technique using a FlexiVent system with FX1 module (Scireq, Montreal, Canada). Mice were anaesthetized with ketamine (150 mg/kg) and xylazine (15 mg/kg) then cannulated by tracheostomy with ligation. Baseline respiratory mechanics were recorded, followed by aerosolized saline then increasing doses of methacholine (MCh) (0.1-30 mg/mL). Respiratory impedance (Zrs) was measured and partitioned into airway and parenchymal components through fitting to the Constant Phase Model from which Newtonian resistance (Rn; equivalent to airway resistance) was calculated.
Total IgE and OVA-specific IgE were measured by enzyme-linked immunosorbent assay (ELISA). Briefly, 96 well plates were coated with either Rat anti-mouse IgE (to measure total IgE; Southern Biotech clone #23G2, cat #1130-01) or OVA protein (for OVA-specific IgE) in PBS overnight. Samples were diluted (total IgE 1:50-1:200 and OVA-specific IgE 1:50-1:100 based on pilot assays), and incubated in duplicate, prior to incubation with GAM Fc-specific polyclonal anti-IgE-HRP and colorimetric detection using TMB substrate (Thermo Scientific #34028), measuring absorbance at 450 nm. Absorbance values were converted to total IgE levels by reference to a mouse IgE anti-DNP (clone SPE-7) standard curve (0.1 ng/mL-1 μg/mL) which was included on the same plate. OVA-specific IgE absorbance was expressed relative to a reference OVA-immunized WT mouse which was selected prior to measurement. All ELISAs were performed blinded to treatment and genotype.

[9] = test system: activated C57BL/6 mouse CD4+ T cells; assay: Survival/expansion of activated CD4+ T cells in vitro; type: cell-based; conditions: anti-CD3 and anti-CD28 activation, three days
Description: as §1
Nave CD4^+ T cells were isolated from a single-cell suspension from mouse spleen by MACS isolation kit (Miltenyi Biotech). Cells were labelled with CellTrace™ Violet (CTV, Thermo Fisher) then activated in 96 well plates pre-coated with anti-CD3 (10 μg/mL) and anti-CD28 (5 μg/mL) in RPMI-1640 medium supplemented with 10% heat-inactivated fetal bovine serum, 2 mM GlutaMAX™ and 0.05 mM β-mercaptoethanol.

tumours = conditions: mouse models; cited from earlier work
[10] = test system: established allergic inflammation; assay: Established OVA inflammation, three doses of GSK126; type: in vivo, C57BL/6 mice
Procedure: Data shown representative of n=5 OVA/Vehicle (Veh) and OVA/GSK groups, n=2 unchallenged controls (Con) shown for reference purposes. c) Quantification of b. Mean and SEM shown. Group sizes as in b. […] Scale bar represents 100 μm. f) Quantification of PAS^+ cells and Inflammation Score. Mean and SEM shown. Group sizes as in b. Statistical analysis by 1-way ANOVA with Holm-Sidak post-hoc.
as §2
The therapeutic regime was then extended to three doses (day 5, 8 and 10) after establishing inflammation by OVA challenge on days 1-4, and airway inflammation assessed on day 11 (FIG. 15a).

EZH1 [11] = molecular target: T1, EZH1; conditions: cited from earlier work; remark: listed apart in the source
MLL-rearranged leukemia = conditions: in-vitro and in vivo; cited from earlier work
H3K27 methylation = conditions: cited from earlier work
[12] = test system: diffused large B-cell lymphomas cells carrying the Y641 mutations; conditions: cited from earlier work
[13] = 75 mg/kg, compared with vehicle
[14] = 150 mg/kg oral gavage, each day of OVA challenge
[15] = after OVA challenge and GSK126 administration
[16] = 150 mg/kg on day 5, 8 and 10, assessed day 11

T1 sequence (Q92800 whole entry, species assumed): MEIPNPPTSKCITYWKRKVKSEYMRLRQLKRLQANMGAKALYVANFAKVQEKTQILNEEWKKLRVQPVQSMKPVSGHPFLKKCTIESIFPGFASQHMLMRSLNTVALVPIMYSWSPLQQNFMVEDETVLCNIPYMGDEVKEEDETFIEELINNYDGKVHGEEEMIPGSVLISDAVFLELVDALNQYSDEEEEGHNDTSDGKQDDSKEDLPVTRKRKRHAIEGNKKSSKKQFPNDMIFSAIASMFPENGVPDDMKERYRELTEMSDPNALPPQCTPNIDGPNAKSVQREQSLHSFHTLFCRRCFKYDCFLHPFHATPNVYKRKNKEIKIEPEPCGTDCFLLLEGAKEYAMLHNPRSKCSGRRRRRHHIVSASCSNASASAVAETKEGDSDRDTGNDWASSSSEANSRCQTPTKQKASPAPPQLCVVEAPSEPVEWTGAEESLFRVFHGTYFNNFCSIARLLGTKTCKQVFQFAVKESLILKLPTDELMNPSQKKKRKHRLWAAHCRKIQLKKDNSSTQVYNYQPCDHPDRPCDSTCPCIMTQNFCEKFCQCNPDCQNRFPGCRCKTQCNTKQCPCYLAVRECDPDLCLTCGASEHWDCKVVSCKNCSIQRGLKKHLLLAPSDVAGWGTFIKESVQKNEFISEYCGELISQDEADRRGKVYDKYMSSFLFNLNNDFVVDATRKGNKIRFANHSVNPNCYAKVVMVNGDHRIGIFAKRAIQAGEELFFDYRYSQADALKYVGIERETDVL
T1 sequence (O75530 whole entry partner, species assumed): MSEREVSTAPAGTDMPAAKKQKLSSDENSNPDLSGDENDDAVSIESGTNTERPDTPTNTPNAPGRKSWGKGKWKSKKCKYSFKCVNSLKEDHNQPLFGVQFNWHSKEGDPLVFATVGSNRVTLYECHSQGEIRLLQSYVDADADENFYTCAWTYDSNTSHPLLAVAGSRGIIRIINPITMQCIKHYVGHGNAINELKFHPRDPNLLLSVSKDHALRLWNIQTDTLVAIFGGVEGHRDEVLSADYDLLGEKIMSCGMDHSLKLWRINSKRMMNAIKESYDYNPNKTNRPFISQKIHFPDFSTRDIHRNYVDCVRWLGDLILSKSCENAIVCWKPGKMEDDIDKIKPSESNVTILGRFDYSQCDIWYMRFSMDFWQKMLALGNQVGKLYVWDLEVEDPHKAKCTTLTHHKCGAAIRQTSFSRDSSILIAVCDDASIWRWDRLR
T1 sequence (Q15022 whole entry partner, species assumed): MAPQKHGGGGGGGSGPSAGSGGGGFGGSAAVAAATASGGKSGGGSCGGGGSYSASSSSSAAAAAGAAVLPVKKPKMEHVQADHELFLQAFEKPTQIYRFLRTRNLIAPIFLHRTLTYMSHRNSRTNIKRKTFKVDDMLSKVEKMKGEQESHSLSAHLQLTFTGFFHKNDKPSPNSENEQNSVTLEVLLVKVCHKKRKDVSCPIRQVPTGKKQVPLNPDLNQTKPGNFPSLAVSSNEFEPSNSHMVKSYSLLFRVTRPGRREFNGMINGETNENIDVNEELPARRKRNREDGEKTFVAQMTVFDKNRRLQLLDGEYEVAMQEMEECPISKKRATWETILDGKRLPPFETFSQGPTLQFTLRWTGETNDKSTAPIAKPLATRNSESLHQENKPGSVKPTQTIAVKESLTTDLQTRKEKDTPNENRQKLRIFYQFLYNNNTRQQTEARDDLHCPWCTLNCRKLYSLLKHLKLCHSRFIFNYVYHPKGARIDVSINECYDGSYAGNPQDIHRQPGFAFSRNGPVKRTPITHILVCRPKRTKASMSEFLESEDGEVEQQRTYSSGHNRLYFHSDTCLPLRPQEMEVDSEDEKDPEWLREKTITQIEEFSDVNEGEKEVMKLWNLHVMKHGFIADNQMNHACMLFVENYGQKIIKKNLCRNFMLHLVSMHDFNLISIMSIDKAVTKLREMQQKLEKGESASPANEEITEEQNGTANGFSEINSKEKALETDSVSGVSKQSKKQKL
T1 sequence (Q09028 whole entry partner, species assumed): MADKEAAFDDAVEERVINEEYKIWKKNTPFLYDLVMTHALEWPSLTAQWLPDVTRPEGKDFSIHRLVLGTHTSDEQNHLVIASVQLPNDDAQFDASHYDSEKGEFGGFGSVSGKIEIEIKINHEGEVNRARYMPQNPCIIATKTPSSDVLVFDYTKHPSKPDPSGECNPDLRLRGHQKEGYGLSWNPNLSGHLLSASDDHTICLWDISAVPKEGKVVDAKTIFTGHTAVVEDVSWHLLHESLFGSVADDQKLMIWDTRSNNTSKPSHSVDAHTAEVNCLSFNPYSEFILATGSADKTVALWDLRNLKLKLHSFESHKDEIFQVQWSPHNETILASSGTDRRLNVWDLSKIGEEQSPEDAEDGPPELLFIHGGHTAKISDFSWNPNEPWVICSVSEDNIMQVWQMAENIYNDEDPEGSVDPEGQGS

Cc1cc(C)c(CNC(=O)c2cc(-c3ccc(CN4CCOCC4)cc3)cc3c2cnn3C2CCCC2)c(=O)[nH]1 [EPZ 005687]
pharmacokinetic properties [1]: suboptimal
affinity and selectivity for EZH2 [2]: high affinity and selectivity

CCS(=O)(=O)N1CCC([C@@H](C)n2c(C)c(C(=O)NCc3c(OC)cc(C)[nH]c3=O)c3ccccc32)CC1 [CPI-169]
antitumor activity and PD target engagement [3]: demonstrated antitumor activity and PD target engagement
oral bioavailability [1]: limited oral bioavailability

COc1cc(C)[nH]c(=O)c1CNC(=O)c1c(C)n([C@H](C)C2CCN(CC(F)(F)F)CC2)c2ccccc12 [CPI-1205]
selectivity against 30 other histone or DNA methyltransferases [4]: selectivity
oral bioavailability [1]: orally bioavailable
selectivity for EZH2 over EZH1 (EZH1 [5]): modest selectivity

CCN(c1cc(-c2ccc(CN3CCOCC3)cc2)cc(C(=O)NCc2c(C)cc(C)[nH]c2=O)c1C)C1CCOCC1 [Tazemetostat]
oral bioavailability [1]: orally bioavailable

CC[C@H](C)n1cc(C)c2c(C(=O)NCc3c(C)cc(C)[nH]c3=O)cc(-c3ccc(N4CCNCC4)nc3)cc21 [GSK126]
BAL granulocyte numbers [6]: did not alter
BAL CD4+ T cell numbers ([6]; 150 mg/kg): reduced; also recorded: selectively reduces
increased potency compared to 20 other methyltransferases [7]: > 1000 fold
BAL cells [8, 13]: no effect
PAS staining [8, 13]: no effect
lung tissue inflammation [8, 13]: no effect
PAS+ mucous-producing epithelial cells ([8]; 150 mg/kg): similarly reduced
levels of inflammation in the lung tissue ([8]; 150 mg/kg): similarly reduced
BAL T cells [8, 14]: dramatic reduction
BAL eosinophils [8, 14]: dramatic reduction
BAL neutrophils [8, 14]: dramatic reduction
total BAL leukocytes [8, 14]: dramatic reduction
OVA-induced airway hyperresponsiveness ([8]; 150 mg/kg, methacholine): complete protection
OVA-specific IgE in serum [8, 15]: unchanged
total IgE in serum [8, 15]: unchanged
systemic effects ([8]; mouse, in vivo): did not observe any systemic effects
number of cells recovered in the culture compared to vehicle control [9]: dose-dependent effect
growth of tumours (tumours): suppress the growth of tumours
BAL B cells [10, 16]: significantly reduced
BAL CD4+ T cells [10, 16]: significantly reduced
BAL eosinophils [10, 16]: significantly reduced
PAS+ mucous-producing cells [10, 16]: reduced
airway inflammation [10, 16]: reduced
total BAL cells [10, 16]: significantly reduced
lung inflammation levels (all groups) ([10]; 7 days after final OVA challenge): statistically indistinguishable
increased potency compared to EZH1 (EZH1 [11]): 150 fold

CCCc1cc(C)[nH]c(=O)c1CNC(=O)c1cc(-c2ccc(N3CCN(C(C)C)CC3)nc2)cc2c1cnn2C(C)C [UNC 1999]
growth of MLL-rearranged leukemia (MLL-rearranged leukemia): inhibit growth

CCC(CC)n1ccc2c(C(=O)NCc3c(C)cc(C)[nH]c3=O)cc(C#N)cc21 [EI1]
H3K27 methylation and PRC2 target genes in treated cells (H3K27 methylation): genome-wide loss of H3K27 methylation and activation of PRC2 target genes
effect on lymphoma cells [12]: decreased proliferation, cell cycle arrest, and apoptosis
